# Assay results: patent US20250282734A1 (Bayer Aktiengesellschaft, priority 2021, published 2025)
# Like-named read-outs stand apart in the source and are kept apart here. Marks after values point to notes of the source that are not given here.
# How the values were obtained:
# [1] = Hygroscopy, dynamic vapour sorption (DVS) isotherms (Example 15); assay type: physicochemical
# Description: Water sorption isotherms were determined using a DVS Resolution gravimetric sorption analyzer (London, UK), or a DVS Intrinsic instrument (Surface measurement Systems). The sample was dried for 1000 minutes at 0% relative humidity (R.H.). Afterwards the dry weight was recorded. […] The equilibrium criterion for each relative humidity set point was 0.002% per minute relative mass change as a function of time.
# [2] = Solubility of cholinate vs free acid and other salts, shake-flask method (Example 14); assay type: physicochemical
# Description: Preparation of FaSSIF (Fasted State Simulated Intestinal Fluid) blank solution: 4.2 g NaOH, 44.7 g NaH2PO4*2 H2O, and 61.86 g NaCl were dissolved in approximately 9.5 L demineralized water. Then, the pH of this solution was adjusted to 6.50+/−0.05 using HCl or NaOH, respectively. In the last step, the final volume was adjusted to 10.0 L by the addition of demineralized water.
# Preparation of the final FaSSIF solution: 4.48 g SIF (Simulated Intestinal Fluids) powder (provider: biorelevant.com, Product code: FFF01 (May 2022)) were dissolved in approximately 500 mL FaSSIF blank solution, then the final volume was adjusted to 2.0 L by the addition of FaSSIF blank solution. After 2 hours, the solution was considered to be ready to use and was used within 48 hours.
# Preparation of FeSSIF (Fed State Simulated Intestinal Fluid) blank solution: 40.4 g NaOH, 118.74 g NaCl, and 82.4 mL glacial acetic acid were dissolved in approximately 9.5 L demineralized water. Then, the pH of this solution was adjusted to 5.00+/−0.05 using HCl or NaOH, respectively. In the last step, the final volume was adjusted to 10.0 L by the addition of demineralized water.
# Preparation of the final FeSSIF solution: 22.4 g SIF powder (provider: biorelevant.com, Product code: FFF01 (May 2022)) were dissolved in approximately 500 mL FeSSIF blank solution, then the final volume was adjusted to 2.0 L by the addition of FeSSIF blank solution. The solution was considered to be ready to use immediately after manufacturing and was used within 48 hours.
# [3] = Determination of exposure in rat after intragastric administration (Example 13); assay type: in vivo; settings: for AUC(0-t): female, plasma, po, read-out: AUC(0-tlast); for AUC(0-t) / AUC(0-tlast)norm: free acid in rat plasma
# Description: Determination of exposure after intragastric application of test compounds was performed in female conscious rats with a body weight of 0.2 kg (minimum) to 0.25 kg (maximum). The test compounds were applied as bolus via intragastric probe to unfed female rats in solution or suspension in the vehicle ethanol/solutol/water (v/v/v 10/40/50).
# At the indicated timepoints between 8 min and 24 h after dosing, 150 μl blood were sampled via a catheter from the vena jugularis. The samples were treated with K-EDTA as anticoagulant and stored cooled until further processing (refrigerator, 4° C.). The samples were centrifuged (15 min, 3000 rpm), then an aliquot of 100 μL was taken from the supernatant (plasma), precipitated by addition of 400 μL cold acetonitrile or methanol (abs.) and frozen at −20° C. over night. The samples were centrifuged (15 min, 3000 rpm), then 150 μL of the clear supernatant were taken for analytical testing. Analytics were performed using an Agilent 1200 HPLC-system with LCMS/MS detection.
# The applied dose of cholinate according to the invention was adjusted as compared to free acid according to the difference in molecular weight. The resulting equivalent doses were used for comparison.
# [4] = Dissolution profile, flow through cell in FeSSIF / FaSSIF (Example 16); assay type: physicochemical; settings: 14 minutes, micronized
# Description: Prior to the measurements, the samples were micronized using a jet mill (MC DECJET 30) under nitrogen, with a pressure of 4.5 Bar for the injector and 4.0 Bar grinding pressure.
# Dissolution rates of the drug substance were then determined using a flow through cell (FTC) from Sotax. All experiments were conducted in triplicates.
# Then, the respective medium (FaSSIF or FeSSIF) was pumped through the cell with a pump rate of 2 mL/min for a total time of 14 minutes, resulting in a total volume of 28 mL. This volume was collected in time increments of 2 minutes, leading to 7 collected fractions with 4 mL each. The drug substance concentration of each fraction was determined by HPLC (external standard).
# [5] = Solubility free acid vs. salt, shake-flask method (Example 12); assay type: physicochemical
compound,measurement,setting,value
"N=C(N)NCCC[C@H](N)C(=O)O.O=C(O)c1cc(NC(=O)C2(c3ccc(C(F)(F)F)cc3F)CC2)ccc1-c1cnn(C2CCC2)c1 [Arginine Salt, Arginine salt of 2-(1-cyclobutyl-1H-pyrazol-4-yl)-5-[({1-[2-fluoro-4-(trifluoromethyl)phenyl]cyclopropyl}carbonyl)amino]benzoate]","Change in mass [%], Desorption",[1]; 0% Relative humidity,31.74%
same,"Change in mass [%], Sorption",[1]; 0% Relative humidity,0.00%
same,"Change in mass [%], Desorption",[1]; 10% Relative humidity,20.17%
same,"Change in mass [%], Sorption",[1]; 10% Relative humidity,1.39%
same,"Change in mass [%], Desorption",[1]; 20% Relative humidity,12.15%
same,"Change in mass [%], Sorption",[1]; 20% Relative humidity,2.13%
same,"Change in mass [%], Desorption",[1]; 30% Relative humidity,10.78%
same,"Change in mass [%], Sorption",[1]; 30% Relative humidity,2.98%
same,"Change in mass [%], Desorption",[1]; 40% Relative humidity,10.09%
same,"Change in mass [%], Sorption",[1]; 40% Relative humidity,4.25%
same,"Change in mass [%], Desorption",[1]; 50% Relative humidity,9.59%
same,"Change in mass [%], Sorption",[1]; 50% Relative humidity,5.72%
same,"Change in mass [%], Desorption",[1]; 60% Relative humidity,9.10%
same,"Change in mass [%], Sorption",[1]; 60% Relative humidity,7.20%
same,"Change in mass [%], Desorption",[1]; 70% Relative humidity,6.12%
same,"Change in mass [%], Sorption",[1]; 70% Relative humidity,9.40%
same,"Change in mass [%], Desorption",[1]; 80% Relative humidity,4.54%
same,"Change in mass [%], Sorption",[1]; 80% Relative humidity,13.25%
same,"Change in mass [%], Desorption",[1]; 90% Relative humidity,2.87%
same,"Change in mass [%], Sorption",[1]; 90% Relative humidity,20.10%
same,"Change in mass [%], Desorption",[1]; 95% Relative humidity,1.60%
same,"Change in mass [%], Sorption",[1]; 95% Relative humidity,31.74%
"O=C([O-])c1cc(NC(=O)C2(c3ccc(C(F)(F)F)cc3F)CC2)ccc1-c1cnn(C2CCC2)c1.[K+] [Potassium salt, Potassium 2-(1-cyclobutyl-1H-pyrazol-4-yl)-5-[({1-[2-fluoro-4-(trifluoromethyl)phenyl]cyclopropyl}carbonyl)amino]benzoate]","Change in mass [%], Desorption",[1]; 0% Relative humidity,67.05%
same,"Change in mass [%], Sorption",[1]; 0% Relative humidity,1.84%
same,"Change in mass [%], Desorption",[1]; 10% Relative humidity,36.40%
same,"Change in mass [%], Sorption",[1]; 10% Relative humidity,3.33%
same,"Change in mass [%], Desorption",[1]; 20% Relative humidity,21.86%
same,"Change in mass [%], Sorption",[1]; 20% Relative humidity,4.12%
same,"Change in mass [%], Desorption",[1]; 30% Relative humidity,15.18%
same,"Change in mass [%], Sorption",[1]; 30% Relative humidity,5.53%
same,"Change in mass [%], Desorption",[1]; 40% Relative humidity,11.85%
same,"Change in mass [%], Sorption",[1]; 40% Relative humidity,8.59%
same,"Change in mass [%], Desorption",[1]; 50% Relative humidity,9.24%
same,"Change in mass [%], Sorption",[1]; 50% Relative humidity,11.39%
same,"Change in mass [%], Desorption",[1]; 60% Relative humidity,6.66%
same,"Change in mass [%], Sorption",[1]; 60% Relative humidity,14.10%
same,"Change in mass [%], Desorption",[1]; 70% Relative humidity,4.31%
same,"Change in mass [%], Sorption",[1]; 70% Relative humidity,17.79%
same,"Change in mass [%], Desorption",[1]; 80% Relative humidity,2.92%
same,"Change in mass [%], Sorption",[1]; 80% Relative humidity,24.21%
same,"Change in mass [%], Desorption",[1]; 90% Relative humidity,1.40%
same,"Change in mass [%], Sorption",[1]; 90% Relative humidity,37.54%
same,"Change in mass [%], Desorption",[1]; 95% Relative humidity,0.00%
same,"Change in mass [%], Sorption",[1]; 95% Relative humidity,67.05%
same,DVS Dm @ 30% R.H. (Sorption),"[1]; summarized results, 30% R.H.",5.5%
same,DVS Dm @ 50% R.H. (Sorption),"[1]; summarized results, 50% R.H.",11.4%
same,DVS Dm @ 80% R.H. (Sorption),"[1]; summarized results, 80% R.H.",24.2%
same,solubility,"[2]; Buffer pH 4.5, 25° C.",5 mgfree acid/L
same,solubility,"[2]; Buffer pH 7, 25° C.",684 mgfree acid/L
same,solubility,"[2]; Buffer pH 8, 25° C.",>11594 mgfree acid/L
same,solubility,[2]; FaSSIF (37° C.) (Fasted State Simulated Intestinal Fluid),781 mgfree acid/L
same,solubility,[2]; FeSSIF (37° C.) (Fed State Simulated Intestinal Fluid),24 mgfree acid/L
same,solubility,"[2]; Water, 25° C.",6425 mgfree acid/L
"O=C(O)c1cc(NC(=O)C2(c3ccc(C(F)(F)F)cc3F)CC2)ccc1-c1cnn(C2CCC2)c1 [free acid, 2-(1-cyclobutyl-1H-pyrazol-4-yl)-5-[({1-[2-fluoro-4-(trifluoromethyl)-phenyl]cyclopropyl}carbonyl)amino]benzoic acid]","Change in mass [%], Desorption",[1]; 0% Relative humidity,0.65%
same,"Change in mass [%], Sorption",[1]; 0% Relative humidity,0.06%
same,"Change in mass [%], Desorption",[1]; 10% Relative humidity,0.52%
same,"Change in mass [%], Sorption",[1]; 10% Relative humidity,0.08%
same,"Change in mass [%], Desorption",[1]; 20% Relative humidity,0.42%
same,"Change in mass [%], Sorption",[1]; 20% Relative humidity,0.10%
same,"Change in mass [%], Desorption",[1]; 30% Relative humidity,0.35%
same,"Change in mass [%], Sorption",[1]; 30% Relative humidity,0.12%
same,"Change in mass [%], Desorption",[1]; 40% Relative humidity,0.29%
same,"Change in mass [%], Sorption",[1]; 40% Relative humidity,0.14%
same,"Change in mass [%], Desorption",[1]; 50% Relative humidity,0.16%
same,"Change in mass [%], Sorption",[1]; 50% Relative humidity,0.17%
same,"Change in mass [%], Desorption",[1]; 60% Relative humidity,0.09%
same,"Change in mass [%], Sorption",[1]; 60% Relative humidity,0.20%
same,"Change in mass [%], Desorption",[1]; 70% Relative humidity,0.05%
same,"Change in mass [%], Sorption",[1]; 70% Relative humidity,0.23%
same,"Change in mass [%], Desorption",[1]; 80% Relative humidity,0.03%
same,"Change in mass [%], Sorption",[1]; 80% Relative humidity,0.29%
same,"Change in mass [%], Desorption",[1]; 90% Relative humidity,0.01%
same,"Change in mass [%], Sorption",[1]; 90% Relative humidity,0.44%
same,"Change in mass [%], Desorption",[1]; 95% Relative humidity,0.00%
same,"Change in mass [%], Sorption",[1]; 95% Relative humidity,0.65%
same,AUC(0-t),"[3]; rat, 3 mg/kg, dose equiv. 3 mg/kg",24 µg·h/mL
same,AUC(0-t),"[3]; rat, 30 mg/kg, dose equiv. 30 mg/kg",149 µg·h/mL
same,AUC(0-t),"[3]; rat, 100 mg/kg, dose equiv. 100 mg/kg",247 µg·h/mL
same,AUC(0-t),"[3]; rat, 150 mg/kg, dose equiv. 150 mg/kg",225 µg·h/mL
same,AUC(0-tlast)norm,[3]; dose equiv. 3 mg/kg,8.1 kg·h/L
same,AUC(0-tlast)norm,[3]; dose equiv. 30 mg/kg,5 kg·h/L
same,AUC(0-tlast)norm,[3]; dose equiv. 100 mg/kg,2.5 kg·h/L
same,AUC(0-tlast)norm,[3]; dose equiv. 150 mg/kg,1.5 kg·h/L
same,Increase of plasma exposure of free acid with dose,"[3]; rat, doses above 30 mg/kg",much less than dose-proportional increase of exposure
same,"Dissolution in FaSSIF, comparison in words",[4]; FaSSIF,dissolved slower
same,"Dissolution in FeSSIF, comparison in words",[4]; FeSSIF,significantly slower
same,solubility,"[5]; Acetone, 25° C.",10100 mg/L
same,solubility,"[5]; Acetonitrile, 25° C.",1290 mg/L
same,solubility,"[5]; Ethanol, 25° C.",4260 mg/L
same,solubility,"[5]; PEG 400, 25° C.",6830 mg/L
same,solubility,"[5]; Phosphate buffer pH 7, 25° C.",87 mg/L
same,solubility,"[5]; Solutol/Ethanol/Water (40/10/50 V/V/V), 25° C.",1300 mg/L
same,solubility,"[5]; Water, 25° C., stirred overnight",<1* mg/L
same,pH of the clear solution,"[5]; solubility test in water, pH of water before stirring: 5.57",*pH of the clear solution: 4.6
